Data set [1] concerns HCT116. Nature of the data set: HCT116 formate rescue assay (with sodium formate 1 mM). In kind it is cell-based. The conditions noted are these: Homo sapiens, HCT-116, 96 h, HCT116 growth. On the procedure:
Example 5. HCT116 Growth Inhibition and Formate Rescue Assays
3,000 Cells were plated in each well of a 96-well plate with 80 μL of DMEM media supplemented with 10% dFBS, and incubated for 24 hours. Drugs with or without sodium formate (1 mM) were then added to each well to a final volume of 100 μL. Cell growth was measured as fluorescence intensity by resazurin after four days. In short, resazurin was added to each well to a final concentration of 10 μg·mL^−1. After incubation for one hour, fluorescence was measured by a Synergy HT plate reader (BioTek Instruments).

Data set [2] can be described thus: Mouse liver microsome assay (metabolic stability). In kind it is in vitro ADME. The following applies: mouse liver microsomes; for half-life at 2 µM: in vitro half-life; for microsomal CLint at 2 µM: in vitro intrinsic clearance, read-out: Relative Clint. The procedure: Example 6. Mouse Liver Microsome Assay
Metabolic stability of several compounds in mouse liver microsomes was tested. Briefly, a master solution was prepared according to Table 31.
Two separate experiments were performed: an experiment with cofactors and an experiment without cofactors. In the experiment with cofactors 40 μL of 10 mM NADPH and 40 μL of 20 mM UDPGA were added to the incubations. The final concentrations of microsomes, NADPH and UDPGA were 0.5 mg/mL, 1 mM and 2 mM, respectively. In the experiment without cofactors 10 μL of 20 mg/mL liver microsomes and 80 μL of ultra-pure H2O were added to the incubations. The final concentration of microsomes was 0.5 mg/mL. The mixture was pre-warmed at 37° C. for 5 minutes.
The reaction was started with the addition of 4 μL of 200 μM control compound or test compound solutions. Verapamil was used as positive control in this study. The final concentration of test compound was 2 μM and the final concentration of control compound was 1 μM. The incubation solution was incubated in water bath at 37° C.
Aliquots of 50 μL were taken from the reaction solution at 0.5, 5, 15, 30, 45 and 60 minutes. The reaction was stopped by the addition of five volumes of cold acetonitrile with IS (100 nM alprazolam, 200 nM caffeine and 100 nM tolbutamide). Samples were centrifuged at 3,220 g for 40 minutes. Aliquot of 100 μL of the supernatant was mixed with 100 μL of ultra-pure H2O and then subject to LC-MS/MS analysis.
All calculations were carried out using Microsoft Excel. Peak areas were determined from extracted ion chromatograms. The slope value, k, was determined by linear regression of the natural logarithm of the remaining percentage of the parent drug versus incubation time curve. The in vitro half-life (in vitro t½) was determined from the slope value:
Conversion of the in vitro t1/2(min) into the in vitro intrinsic clearance (in vitro CLint, in μL/min/mg protein) was done using the following equation (mean of duplicate determinations): […]

Data set [3] deals with HCT116. In words: HCT116 growth inhibition assay. In kind it is cell-based. The conditions noted are these: without formate. Put shortly:
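HCT116 cells grown in DMEM with 10% dFBS for 24 h, then exposed to compound with or without 1 mM sodium formate. Growth read after four days by resazurin (10 μg·mL^−1, 1 h) fluorescence.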

The structures appear in SMILES notation. pIC50: −log10 of the molar value. Structures can show the parent of a compound that is named as a salt.

With `Cc1n[nH]c2c1C(c1cc(C#CC3CN(C(=O)OC(C)(C)C)C3)cc(CO)c1)(C(C)C)C(C#N)=C(N)O2` (stereo not drawn) [KDG-0271, tert-butyl 3-[2-(3-[6-amino-5-cyano-4-isopropyl-3-methyl-1H-pyrano[2,3-c]pyrazol-4-yl]-5-(hydroxymethyl)phenyl)ethynyl]azetidine-1-carboxylate], the negative-log IC50 (pIC50) in data set [1] was less than 5.30. In data set [2], the half-life at 2 µM is 10 to 20 min and the microsomal CLint at 2 µM lay within 70 to 100 µL/min/mg. In addition, the IC50 entry in data set [3] was “A″”.

For `Cc1n[nH]c2c1C(c1cc(C#C[C@H]3CC[C@H](NC(=O)OC(C)(C)C)CC3)cc(CO)c1)(C(C)C)C(C#N)=C(N)O2` (stereo partly drawn) [KDG-0320, tert-butyl N-[(1r,4r)-4-[2-(3-[6-amino-5-cyano-4-isopropyl-3-methyl-1H-pyrano[2,3-c]pyrazol-4-yl]-5-(hydroxymethyl)phenyl)ethynyl]cyclohexyl]carbamate hydrochloride], in data set [1], the pIC50 is more than 7.00. For the same compound, in data set [2], the half-life at 2 µM was not below 20 min and the microsomal CLint at 2 µM was not above 70 µL/min/mg. The IC50 result in data set [3] is listed as “B″”.

For the compound `Cc1n[nH]c2c1C(c1cc(C#C[C@H]3C[C@@H](NC(=O)OC(C)(C)C)C3)cc(CO)c1)(C(C)C)C(C#N)=C(N)O2` (stereo partly drawn) [KDG-0388, tert-butyl N-[(1s,3s)-3-[2-(3-[6-amino-5-cyano-4-isopropyl-3-methyl-1H-pyrano[2,3-c]pyrazol-4-yl]-5-(hydroxymethyl)phenyl)ethynyl]cyclobutyl]carbamate], the negative-log IC50 (pIC50) in data set [1] is less than 5.30. In data set [2], the half-life at 2 µM was not below 20 min and the microsomal CLint at 2 µM was not above 70 µL/min/mg. Also, in data set [3], the IC50 entry is “B″”.

As a reminder, the pIC50 is the IC50 on a negative log10 scale, so that one unit is a factor of ten. As a reminder, the half-life is the time in which the quantity being followed falls by half. A high value points to slow decline.
